Laboratory results published in article PMC12027149 (International Journal of Molecular Sciences, 2025).
Several values for one entry are separate records, joined by “and”; a condition that tells them apart may be missing. Equal entries are not always repeated. Where two headings read alike, the source gives them in different places.

How the values were obtained:
[1] = target: T1, Acetylcholinesterase (AChE, EC 3.1.1.7) (Electrophorus electricus, UniProt O42275); test: Acetylcholinesterase inhibition, modified Ellman colorimetric method; format: biochemical; conditions: for Hillslope: AChE inhibition dose–response curve; for LOAEL / IC50: Ellman assay; for IC50: 0.03–2 mM, Hill fit; for maximum inhibition of AChE among the tested concentrations: 0.03 to 2 mM
T1 construct: purchased Sigma-Aldrich
T1 sequence (O42275 24-633): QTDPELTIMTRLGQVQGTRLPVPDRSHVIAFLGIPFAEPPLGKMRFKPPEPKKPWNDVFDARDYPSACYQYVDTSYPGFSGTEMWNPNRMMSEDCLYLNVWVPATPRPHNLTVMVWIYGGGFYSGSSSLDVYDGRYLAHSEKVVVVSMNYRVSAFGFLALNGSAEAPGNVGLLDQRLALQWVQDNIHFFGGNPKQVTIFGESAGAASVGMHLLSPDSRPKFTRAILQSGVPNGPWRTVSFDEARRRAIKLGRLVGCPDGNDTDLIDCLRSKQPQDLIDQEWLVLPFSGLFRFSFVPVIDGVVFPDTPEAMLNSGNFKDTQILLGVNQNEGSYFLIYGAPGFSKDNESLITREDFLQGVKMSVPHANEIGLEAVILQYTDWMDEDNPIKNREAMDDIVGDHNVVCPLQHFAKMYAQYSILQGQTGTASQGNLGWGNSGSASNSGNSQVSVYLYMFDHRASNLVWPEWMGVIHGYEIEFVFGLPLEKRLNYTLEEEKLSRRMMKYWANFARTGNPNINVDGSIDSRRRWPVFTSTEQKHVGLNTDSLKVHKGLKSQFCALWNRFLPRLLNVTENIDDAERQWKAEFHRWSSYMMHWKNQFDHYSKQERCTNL
Experimental: Acetylcholinesterase (AChE, EC 3.1.1.7) enzymatic activity was assessed using a modified version of Ellman’s colorimetric method, as described by Falé et al.. In this assay, a mixture of 325 μL of 50 mM Tris-HCl buffer (pH 8), 100 μL of a cathinone solution, and 25 μL of AChE (0.1 U/mL in 50 mM Tris–HCl buffer pH 8) were incubated. After a 15 min incubation period, 75 μL of AChI (0.33 mg/mL) was added to 475 μL of DTNB (dithiobis (2-nitrobenzoic acid)) (1.2 mg/mL in Tris–HCl buffer (pH 8) containing 0.1 M NaCl and 0.02 M MgCl2). A control reaction, representing 100% activity, was performed using the same volume of water instead of the cathinone solution. The initial velocity of the enzymatic reaction was measured at 405 nm for 5 min, with all assays carried out in duplicate. The percentage of AChE activity inhibition for different concentrations of cathinones [0.03–2 mM] was determined as the ratio of the initial velocity in the cathinone presence to the initial velocity of the control reaction. Experimental results were fitted to Hill’s sigmoidal dose–response non-linear regression model to determine IC50 values (cathinone concentration showing 50% inhibition), along with their confidence interval at the 95% confidence level ([CI]). The Hill slope coefficients that provide the steepest value of the slope of the dose–response curve and the minimum observable adverse effect concentration (LOAEL) for all cathinones were also determined.

[2] = MTT cytotoxicity assay on differentiated SH-SY5Y cells; format: cell-based, human; conditions: human, 0.05–5 mM; for CC50 at 24 h: differentiated SH-SY5Y, MTT reduction assay, Hill fit, read-out: LC50
Experimental: (§1) The SH–SY5Y cell line (DSMZ code: ACC 209) was supplied by the German Collection of Microorganisms and the Cell Culture GmbH (DSMZ) biobank and was cultured according to the supplier’s information. Cells were grown in DMEM:F12 (Dulbecco’s Modified Eagle’s Medium/F12), supplemented with 10% fetal bovine serum (FBS) and 1% antibiotic–antimycotic in a humidified atmosphere with 5% CO2 at 37 °C. Subculture was performed according to biobank instructions when the cultures reached 80–85% of confluence.
(§2) SH-SY5Y cells were trypsinized (trypsin/EDTA; 0.25%) and the cell suspension was seeded in 96-well plates at a density of 2 × 10^4 cells/well and incubated until reaching 80-85% confluence. Cells were differentiated to obtain a dopaminergic neuronal phenotype according to Ferreira et al. with slight modifications (Figure 10). To ensure reproducibility and optimal neuronal differentiation, cells were used between passages (15–25). Briefly, cells were seeded in complete DMEM:F12 medium containing 10 µM retinoic acid (RA) and 2.5% fetal bovine serum (FBS) and maintained for 4 days, with the medium changed on day 2. After this time, the medium was replaced by DMEM:F12 supplemented with 10 µM RA, 80 nM 12-O-tetradecanoylphorbol-13-acetate (TPA), and 2.5% FBS, and the cells were maintained for an additional 4 days (with the medium changed at day 6). The cytotoxicity assay was performed on day 8.
(§3) The SH-SY5Y cells’ viability was evaluated after exposure for 24 h to […]. The 3-(4,5-dimethylthiazol-2-yl) − 2,5-diphenyltetrazolium bromide (MTT) colorimetric assay was performed following the methodology described by Joana Silva et al.. The experimental dose–response results were fitted to the Hill’s sigmoidal non-linear regression model. For each cathinone, the LC50 values (cathinone concentration showing 50% lethality) and their confidence interval at the 95% confidence level ([CI]) were determined. The Hill slope, also known as the Hill coefficient, which describes the steepness of a dose–response curve, and the minimum observable adverse effect concentration (LOAEL) were also determined for all cathinones.

[3] = test system: differentiated SH-SY5Y cells; test: as above; format: cell-based, human; conditions: lowest observed adverse effect level, differentiated SH-SY5Y, 24 h, MTT
Experimental: as §1, §2, §3

SH-SY5Y cells = test: Mitochondrial membrane potential (JC-1 probe); format: cell-based, human; conditions: 6 h treatment at LC50, JC-1
Experimental: Mitochondrial membrane potential (MMP) was estimated by using the JC-1 fluorescent probe (Molecular Probes, Eugene, OR, USA) as described in Silva et al., 2022 [65]. The formation of JC-1 aggregates (excitation λ: 490 nm; emission λ: 590 nm) and monomers (excitation λ: 490 nm; emission λ: 530 nm) was measured for 30 min using a plate reader (Bio-Tek Synergy plate reader, Bedfordshire, UK). Changes in MMP were calculated as the ratio between JC-1 monomers and aggregates and expressed as a percentage of the control. An FCCP (2.5 µM) and oligomycin A (1 mg/mL) conjugate solution was used as the positive control. All data were obtained from at least three independent experiments (n = 3) and were presented as mean ± standard error of the mean (SEM).

| SMILES | Hillslope [1] | LOAEL ([1]; AChE inhibition) | IC50 ([1]; IC50, AChE inhibition) [µM] | CC50 at 24 h [2] [µM] | LOAEL [3] | maximum inhibition of AChE among the tested concentrations [1] [%] | MMP depolarization (SH-SY5Y cells) | IC50 ([1]; AChE inhibition, read-out: IC50) [µM] | inhibition at 2000 µM ([1]; highest tested concentration of 2 mM) [%] | Emax at 24 h ([2]; MTT, read-out: maximum response (cytotoxicity)) [%] |
| --- | --- | --- | --- | --- | --- | --- | --- | --- | --- | --- |
| CC(C(=O)c1ccccc1Cl)N(C)C (racemic) [2-CDC (12), (R,S)-1-(2-chlorophenyl)-2-(dimethylamino)propan-1-one] | 2.5 | 0.250 mM | 700 | 1300 | 1 mM and 1.0 mM | – | – | – | – | – |
| CCNC(C)C(=O)c1ccccc1Cl (racemic) [2-CEC (4), (R,S)-1-(2-chlorophenyl)-2-(ethylamino)propan-1-one] | 4.3 | 0.500 mM | 600 | 1600 | 0.5 mM | 85 | – | – | – | – |
| CNC(C)C(=O)c1ccccc1Cl (racemic) [2-CMC (1), (R,S)-1-(2-chlorophenyl)-2-(methylamino)propan-1-one] | 2.5 | 0.250 mM | 700 | 1700 | 1 mM and 1.0 mM | – | – | – | – | – |
| CC(C(=O)c1ccccc1Cl)N1CCCC1 (racemic) [2-Cl-PPP (9), (R,S)-1-(2-chlorophenyl)-2-(pyrrolidine-1-yl)propan-1-one] | 1.5 | 0.125 mM | 300 | 1600 | 0.5 mM | 81 | – | – | – | – |
| CCCCNC(C)C(=O)c1cccc(Cl)c1 (racemic) [3-CBC (7), (R,S)-2-(butylamino)-1-(3-chlorophenyl)propan-1-one] | 1.4 | 0.125 mM | 400 | 700 | 0.1 mM | – | more pronounced MMP depolarization than the other cathinones | – | – | – |
| CC(C(=O)c1cccc(Cl)c1)N(C)C (racemic) [3-CDC (13), (R,S)-1-(3-chlorophenyl)-2-(dimethylamino)propan-1-one] | 1.2 | 0.250 mM | 900 | 1800 | 1 mM and 1.0 mM | – | – | – | – | – |
| CCNC(C)C(=O)c1cccc(Cl)c1 (racemic) [3-CEC (5), (R,S)-1-(3-chlorophenyl)-2-(ethylamino)propan-1-one] | 1.3 | 0.250 mM | 800 | 1300 | 0.5 mM | – | – | – | – | – |
| CC(C)NC(C)C(=O)c1cccc(Cl)c1 (racemic) [3-CIC (17), (R,S)-1-(3-chlorophenyl)-2-(isopropylamino)propan-1-one] | 0.8 | 0.063 mM | 200 | 1600 | 1 mM and 1.0 mM | – | – | – | – | – |
| CNC(C)C(=O)c1cccc(Cl)c1 (racemic) [3-CMC (2), (R,S)-1-(3-chlorophenyl)-2-(methylamino)propan-1-one] | 3.7 | 0.500 mM | 800 | 2300 | 1 mM and 1.0 mM | – | – | – | – | – |
| CC(C(=O)c1cccc(Cl)c1)N1CCCC1 (racemic) [3-Cl-PPP (10), (R,S)-1-(3-chlorophenyl)-2-(pyrrolidine-1-yl)propan-1-one] | 1.8 | 0.125 mM | 400 | 2500 | 0.1 mM | – | – | – | – | – |
| CC(NC(C)(C)C)C(=O)c1cccc(Cl)c1 (racemic) [3-Cl-TBC (19), (R,S)-2-(tert-butylamino)-1-(3-chlorophenyl)propan-1-one] | 0.9 | 0.250 mM | – | 1000 | 0.5 mM | – | – | 1000 | – | – |
| CCCCNC(C)C(=O)c1ccc(Cl)cc1 (racemic) [4-CBC (8), (R,S)-2-(butylamino)-1-(4-chlorophenyl)propan-1-one] | 5.1 | 0.100 mM | 1300 | 600 | 0.5 mM | – | more pronounced MMP depolarization than the other cathinones | – | – | – |
| CC(C(=O)c1ccc(Cl)cc1)N(C)C (racemic) [4-CDC (14), (R,S)-1-(4-chlorophenyl)-2-(dimethylamino)propan-1-one] | 2.9 | 0.500 mM and 0.50 mM | 700 | 1500 | 1 mM and 1.0 mM | – | – | – | – | – |
| CCNC(C)C(=O)c1ccc(Cl)cc1 (racemic) [4-CEC (6), (R,S)-1-(4-chlorophenyl)-2-(ethylamino)propan-1-one] | 1.2 | 0.250 mM | 1200 | 1300 | 0.1 mM | – | – | – | – | – |
| CC(C)NC(C)C(=O)c1ccc(Cl)cc1 (racemic) [4-CIC (18), (R,S)-1-(4-chlorophenyl)-2-(isopropylamino)propan-1-one] | 2.0 | 0.375 mM | 1100 | 1400 | 1 mM and 1.0 mM | – | – | – | – | – |
| CNC(C)C(=O)c1ccc(Cl)cc1 (racemic) [4-CMC (3), (R,S)-1-(4-chlorophenyl)-2-(methylamino)propan-1-one] | 1.5 | 0.250 mM | ~2000 | 1300 | 0.1 mM | – | – | – | 47 | – |
| CCN(CC)C(C)C(=O)c1ccc(Cl)cc1 (racemic) [4-Cl-DEC (16), (R,S)-1-(4-chlorophenyl)-2-(diethylamino)propan-1-one] | 0.8 | 0.063 mM | 100 | 1000 | 1 mM and 1.0 mM | – | – | – | – | – |
| CC(C(=O)c1ccc(Cl)cc1)N1CCCC1 (racemic) [4-Cl-PPP (11), (R,S)-1-(4-chlorophenyl)-2-(pyrrolidine-1-yl)propan-1-one] | 1.1 | 0.250 mM | 500 | 1800 | 0.5 mM | – | – | – | – | – |
| CNC(C)C(=O)c1ccc(C)cc1 (centres unmarked) [Mephedrone (M), Mephedrone, reference compound] | 8.6 | 0.750 mM | 800 | 2100 | 0.5 mM | – | – | – | – | 73 |
